The values below come from US20230256036A1, “SERPIN PRODUCTION” (SOCIETE DES PRODUITS NESTLE S.A., priority 2020, published 2023).

In assay [1] the test system is serpin in Bifidobacterium longum subsp longum. Description: Serpin induction by LNT in culture medium containing glucose. In kind it is cell-based. Particulars: only when the glucose is present at levels allowing its depletion during fermentation. From the text:
LNT may be added to a conventional culture medium comprising up to 8 wt %, preferably up to 6 wt %, for example up to 4 wt %, of another sugar suitable to sustain B. longum growth, such as, but not limited to, glucose. […] Preferably the culture medium at the end of the fermentation contains less than 0.4 wt % glucose, such as from 0 wt % to 0.3 wt % glucose, for example from 0.02 wt % to 0.4 wt %, or from about 0.05 wt % to about 0.3 wt %. Conventional culture mediums suitable for growth of B. longum are well known to the person skilled in the art.

Assay [2] deals with serpin protein in B. longum NCC 2705. Description: Serpin protein level by ELISA in B. longum NCC 2705 grown on HMOs. In kind it is cell-based, Bifidobacterium longum subsp longum. Particulars: HMO 0.5 wt %, 16 h, FIG. 1. The protocol:
(§1) B. longum strain CNCM I-2618 (NCC 2705) was grown in Biolector (growth conditions—anaerobic, 37° C.) in MRS+5 mM L-cysteine (MRSc) base without sugar, to which different commercially available Human Milk Oligosaccharides (HMOs) were added at a concentration of 0.5 wt %.
(§2) 48-well microtiter plate with pH sensor and dissolved oxygen (DO) sensor were used to culture the strains in Biolector (m2p-labs Aachen, Germany). It was continuously shaken to prevent bacteria aggregation for 16 h. Cultures were harvested by centrifugation and supernatant was removed. Pellet was resuspended in PBS supplemented with halt protease inhibitor (Sigma) and lysed using glassbeads. Lysate containing both soluble and insoluble material was then collected. Total protein content was measured using Pierce BCA kit (Thermofisher) and serpin protein concentration was determined using ELISA.
On the technique in general: An ELISA detects its analyte on a solid surface through an enzyme-linked reagent.

Assay [3] deals with B. longum strain CNCM I-2618 (NCC 2705). Nature of the assay: Growth of B. longum NCC 2705 in Biolector on MRSc base without sugar plus HMO. Format: cell-based, Bifidobacterium longum subsp longum. Particulars: HMO 0.5 wt % in MRSc base without sugar, anaerobic, 37° C., 16 h. As for the experimental part: as §1, §2
Assay [4] relates to B. longum subsp. longum strains. Nature of the assay: Growth of B. longum subsp. longum strains on LNT as sole carbohydrate source. Format: cell-based, Bifidobacterium longum subsp longum. Particulars: 0.5% LNT in MRSc base without sugar, 16 h, all tested B. longum subsp. longum strains. As for the experimental part:
as §1, §2
The serpin encoding gene and its surrounding is highly conserved within the B. longum subsp. longum species. Strains of B. longum subsp. longum were selected to represent the entire span of the genetic phylogenetic tree (Table 2). All strains were cultured in Biolector (according to example 1) in a MRSc base without sugar, to which 0.5% glucose or 0.5% of LNT was added. Cultures were grown for 16 h and harvested. Obtained pellets were further analyzed for total and serpin protein content (see example 1).

Assay [5] deals with serpin protein in B. longum subsp. longum strains. Description: Serpin protein level by ELISA in B. longum subsp. longum strains grown on glucose or LNT. Format: cell-based, Bifidobacterium longum subsp longum. The settings on record: 0.5% LNT vs 0.5% glucose, 16 h, all tested strains, FIG. 2.
Method: 48-well microtiter plate with pH sensor and dissolved oxygen (DO) sensor were used to culture the strains in Biolector [MUT]-labs Aachen, Germany). It was continuously shaken to prevent bacteria aggregation for 16 h. Cultures were harvested by centrifugation and supernatant was removed. Pellet was resuspended in PBS supplemented with halt protease inhibitor (Sigma) and lysed using glassbeads. Lysate containing both soluble and insoluble material was then collected. Total protein content was measured using Pierce BCA kit (Thermofisher) and serpin protein concentration was determined using ELISA. […] All strains were cultured in Biolector (according to example 1) in a MRSc base without sugar, to which 0.5% glucose or 0.5% of LNT was added. Cultures were grown for 16 h and harvested. Obtained pellets were further analyzed for total and serpin protein content (see example 1).

`CC(=O)N[C@H]1[C@H](O[C@H]2[C@@H](O)[C@@H](CO)O[C@@H](O[C@H]3[C@H](O)[C@@H](O)C(O)O[C@@H]3CO)[C@@H]2O)O[C@H](CO)[C@@H](O)[C@@H]1O[C@@H]1O[C@H](CO)[C@H](O)[C@H](O)[C@H]1O` (some centres unmarked) [LNT, Lacto-N-tetraose]: the “induction of serpin production when glucose is present” value in assay [1] was “can induce production of serpin”. For the same compound, in assay [2], the “levels of serpin protein in B. longum NCC 2705” value is reported as “significantly increase”. Also, the “support of growth of B. longum NCC 2705” value in assay [3] is on record as “the only one supporting the growth”. In addition, the “growth on LNT as sole carbohydrate source” value in assay [4] is on record as “able to grow”. Besides, the “serpin protein levels in B. longum subsp. longum strains” value in assay [5] is reported as “increased”.
